Each structure is given as a SMILES string. Converted amounts (≈) assume the structure as drawn.

The subject of one test is Candida tropicalis. The test is described as follows: Antifungal activity against Candida tropicalis 8915 assessed as inhibition of fungal growth incubated for 48 hrs by CLSI based broth microdilution assay. The class given is functional.
Conditions: not given
In general terms: In broth dilution the organism is exposed to a series of concentrations in liquid medium.
The MIC is the smallest concentration in the dilution series that meets the test's criterion for growth inhibition. Take `C[C@@H](OCc1ccn(Cc2cc(Cl)ccc2Cl)n1)[C@](O)(Cn1cncn1)c1ccc(F)cc1F`: the MIC came out at 32 µg/mL (≈ 62.9 µM).
Turning to `COc1ccc(Cn2ccc(CO[C@H](C)[C@](O)(Cn3cncn3)c3ccc(F)cc3F)n2)cc1`, the minimal inhibitory concentration (MIC) is over 64 µg/mL.
As to `C[C@@H](OCc1ccn(Cc2c(F)cccc2F)n1)[C@](O)(Cn1cncn1)c1ccc(F)cc1F`, the MIC was determined as 0.25 µg/mL (≈ 0.526 µM).
Still for that read-out and setting: under `C[C@@H](OCc1ccn(Cc2cccc(Cl)c2Cl)n1)[C@](O)(Cn1cncn1)c1ccc(F)cc1F` stands 16 µg/mL (≈ 31.5 µM).
Same read-out and setting: under `C[C@@H](OCc1ccn(Cc2c(Cl)cc(Cl)cc2Cl)n1)[C@](O)(Cn1cncn1)c1ccc(F)cc1F` stands 64 µg/mL (≈ 118 µM); under `C[C@@H](OCc1ccn(Cc2ccc(F)cc2Cl)n1)[C@](O)(Cn1cncn1)c1ccc(F)cc1F`, 8 µg/mL (≈ 16.3 µM).

The next test has as its system Nakaseomyces glabratus. The test is described as follows: Antifungal activity against Candida glabrata 537 assessed as inhibition of fungal growth incubated for 48 hrs by CLSI based broth microdilution assay. It is filed as functional.
Conditions: not given
Turning to `C[C@@H](OCc1ccn(Cc2cc(Cl)ccc2Cl)n1)[C@](O)(Cn1cncn1)c1ccc(F)cc1F`, the MIC was found to be 0.5 µg/mL (≈ 0.984 µM).
`COc1ccc(Cn2ccc(CO[C@H](C)[C@](O)(Cn3cncn3)c3ccc(F)cc3F)n2)cc1`: the MIC worked out at 0.5 µg/mL (≈ 1.06 µM).
Same read-out and setting: with `C[C@@H](OCc1ccn(Cc2c(F)cccc2F)n1)[C@](O)(Cn1cncn1)c1ccc(F)cc1F` the figure was 0.5 µg/mL (≈ 1.05 µM).
Same read-out and setting: under `C[C@@H](OCc1ccn(Cc2cccc(Cl)c2Cl)n1)[C@](O)(Cn1cncn1)c1ccc(F)cc1F` stands 0.5 µg/mL (≈ 0.984 µM).
Still for that read-out and setting: with `C[C@@H](OCc1ccn(Cc2c(Cl)cc(Cl)cc2Cl)n1)[C@](O)(Cn1cncn1)c1ccc(F)cc1F` the figure was 1 µg/mL (≈ 1.84 µM).
With `C[C@@H](OCc1ccn(Cc2ccc(F)cc2Cl)n1)[C@](O)(Cn1cncn1)c1ccc(F)cc1F`, the MIC was 1 µg/mL (≈ 2.03 µM).

For the next test, the system named is Cryptococcus neoformans. The test is described as follows: Antifungal activity against Cryptococcus neoformans 32609 assessed as inhibition of fungal growth incubated for 72 hrs by CLSI based broth microdilution assay. It is filed as functional.
Conditions: not given
As to `C[C@@H](OCc1ccn(Cc2cc(Cl)ccc2Cl)n1)[C@](O)(Cn1cncn1)c1ccc(F)cc1F`, the MIC was determined as 0.25 µg/mL (≈ 0.492 µM).
Same read-out and setting: with `COc1ccc(Cn2ccc(CO[C@H](C)[C@](O)(Cn3cncn3)c3ccc(F)cc3F)n2)cc1` the figure was 0.5 µg/mL (≈ 1.06 µM); with `C[C@@H](OCc1ccn(Cc2c(F)cccc2F)n1)[C@](O)(Cn1cncn1)c1ccc(F)cc1F`, 0.5 µg/mL (≈ 1.05 µM).
Same read-out and setting: with `C[C@@H](OCc1ccn(Cc2cccc(Cl)c2Cl)n1)[C@](O)(Cn1cncn1)c1ccc(F)cc1F` the figure was 0.5 µg/mL (≈ 0.984 µM); with `C[C@@H](OCc1ccn(Cc2c(Cl)cc(Cl)cc2Cl)n1)[C@](O)(Cn1cncn1)c1ccc(F)cc1F`, at most 0.125 µg/mL.
Same read-out and setting: with `C[C@@H](OCc1ccn(Cc2ccc(F)cc2Cl)n1)[C@](O)(Cn1cncn1)c1ccc(F)cc1F` the figure was 0.25 µg/mL (≈ 0.508 µM).

A further test relates to Candida albicans. The test is described as follows: Antifungal activity against Candida albicans SC5314 assessed as inhibition of fungal growth incubated for 48 hrs by CLSI based broth microdilution assay. The class given is functional.
Conditions: not given
Regarding `C[C@@H](OCc1ccn(Cc2cc(Cl)ccc2Cl)n1)[C@](O)(Cn1cncn1)c1ccc(F)cc1F`, the MIC came to 0.25 µg/mL (≈ 0.492 µM).
Still for that read-out and setting: with `COc1ccc(Cn2ccc(CO[C@H](C)[C@](O)(Cn3cncn3)c3ccc(F)cc3F)n2)cc1` the figure was at most 0.125 µg/mL.
The same measure, in the same setting: with `C[C@@H](OCc1ccn(Cc2c(F)cccc2F)n1)[C@](O)(Cn1cncn1)c1ccc(F)cc1F` the figure was at most 0.125 µg/mL; with `C[C@@H](OCc1ccn(Cc2cccc(Cl)c2Cl)n1)[C@](O)(Cn1cncn1)c1ccc(F)cc1F`, 0.25 µg/mL (≈ 0.492 µM); with `C[C@@H](OCc1ccn(Cc2c(Cl)cc(Cl)cc2Cl)n1)[C@](O)(Cn1cncn1)c1ccc(F)cc1F`, 0.25 µg/mL (≈ 0.461 µM).
The same measure, in the same setting: under `C[C@@H](OCc1ccn(Cc2ccc(F)cc2Cl)n1)[C@](O)(Cn1cncn1)c1ccc(F)cc1F` stands at most 0.125 µg/mL.

Another test concerns Candida parapsilosis. The test is described as follows: Antifungal activity against Candida parapsilosis 22019 assessed as inhibition of fungal growth incubated for 48 hrs by CLSI based broth microdilution assay. The class given is functional. The settings on record: Lodderomyces parapsilosis.
Turning to `C[C@@H](OCc1ccn(Cc2cc(Cl)ccc2Cl)n1)[C@](O)(Cn1cncn1)c1ccc(F)cc1F`, the MIC came to 1 µg/mL (≈ 1.97 µM).
`COc1ccc(Cn2ccc(CO[C@H](C)[C@](O)(Cn3cncn3)c3ccc(F)cc3F)n2)cc1`: the MIC worked out at 1 µg/mL (≈ 2.13 µM).
Still for that read-out and setting: with `C[C@@H](OCc1ccn(Cc2c(F)cccc2F)n1)[C@](O)(Cn1cncn1)c1ccc(F)cc1F` the figure was 0.5 µg/mL (≈ 1.05 µM).
Same read-out and setting: with `C[C@@H](OCc1ccn(Cc2cccc(Cl)c2Cl)n1)[C@](O)(Cn1cncn1)c1ccc(F)cc1F` the figure was 0.25 µg/mL (≈ 0.492 µM); with `C[C@@H](OCc1ccn(Cc2c(Cl)cc(Cl)cc2Cl)n1)[C@](O)(Cn1cncn1)c1ccc(F)cc1F`, 2 µg/mL (≈ 3.68 µM); with `C[C@@H](OCc1ccn(Cc2ccc(F)cc2Cl)n1)[C@](O)(Cn1cncn1)c1ccc(F)cc1F`, 1 µg/mL (≈ 2.03 µM).

The next test deals with Pichia kudriavzevii. The test is described as follows: Antifungal activity against Candida krusei 4996 assessed as inhibition of fungal growth incubated for 48 hrs by CLSI based broth microdilution assay.
Conditions: not given
It is filed as functional.
As to `C[C@@H](OCc1ccn(Cc2cc(Cl)ccc2Cl)n1)[C@](O)(Cn1cncn1)c1ccc(F)cc1F`, the MIC is 4 µg/mL (≈ 7.87 µM).
The same measure, in the same setting: under `COc1ccc(Cn2ccc(CO[C@H](C)[C@](O)(Cn3cncn3)c3ccc(F)cc3F)n2)cc1` stands 8 µg/mL (≈ 17 µM); under `C[C@@H](OCc1ccn(Cc2c(F)cccc2F)n1)[C@](O)(Cn1cncn1)c1ccc(F)cc1F`, 16 µg/mL (≈ 33.7 µM).
Regarding `C[C@@H](OCc1ccn(Cc2cccc(Cl)c2Cl)n1)[C@](O)(Cn1cncn1)c1ccc(F)cc1F`, the MIC was 8 µg/mL (≈ 15.7 µM).
With `C[C@@H](OCc1ccn(Cc2c(Cl)cc(Cl)cc2Cl)n1)[C@](O)(Cn1cncn1)c1ccc(F)cc1F`, the MIC is 8 µg/mL (≈ 14.7 µM).
On the same count and under the same terms, with `C[C@@H](OCc1ccn(Cc2ccc(F)cc2Cl)n1)[C@](O)(Cn1cncn1)c1ccc(F)cc1F` the figure was 4 µg/mL (≈ 8.13 µM).

The subject of a further test is Candida albicans. The test is described as follows: Antifungal activity against Candida albicans 10231 assessed as inhibition of fungal growth incubated for 48 hrs by CLSI based broth microdilution assay. The class given is functional.
Conditions: not given
As for `C[C@@H](OCc1ccn(Cc2cc(Cl)ccc2Cl)n1)[C@](O)(Cn1cncn1)c1ccc(F)cc1F`, the MIC is 0.5 µg/mL (≈ 0.984 µM).
Consider `COc1ccc(Cn2ccc(CO[C@H](C)[C@](O)(Cn3cncn3)c3ccc(F)cc3F)n2)cc1`, for which the MIC amounted to 0.25 µg/mL (≈ 0.532 µM).
Take `C[C@@H](OCc1ccn(Cc2c(F)cccc2F)n1)[C@](O)(Cn1cncn1)c1ccc(F)cc1F`: the MIC stood at 0.5 µg/mL (≈ 1.05 µM).
On the same count and under the same terms, under `C[C@@H](OCc1ccn(Cc2cccc(Cl)c2Cl)n1)[C@](O)(Cn1cncn1)c1ccc(F)cc1F` stands at most 0.125 µg/mL; under `C[C@@H](OCc1ccn(Cc2c(Cl)cc(Cl)cc2Cl)n1)[C@](O)(Cn1cncn1)c1ccc(F)cc1F`, 0.5 µg/mL (≈ 0.921 µM); under `C[C@@H](OCc1ccn(Cc2ccc(F)cc2Cl)n1)[C@](O)(Cn1cncn1)c1ccc(F)cc1F`, 0.25 µg/mL (≈ 0.508 µM).

Source of the values: ChEMBL document CHEMBL5579851, “Synthesis and antifungal evaluation of novel triazole derivatives bearing a pyrazole-methoxyl moiety” (Eur J Med Chem, 2024).
